One data set deals with rgRSV224 virus. Description: Antiviral activity: inhibition of rgRSV224 (GFP-expressing RSV) replication in HeLa cells. Format: cell-based, respiratory syncytial virus. The conditions noted are these: for EC50: human respiratory syncytial virus, HeLa, 72 h, read-out: pEC50, rgRSV224 (MOI=0.02) in HeLa cells, GFP expression three days post-virus exposure (converted); for pEC50: rgRSV224 (MOI=0.02) in HeLa cells, GFP expression three days post-virus exposure. Summed up:
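HeLa cells infected with GFP-expressing rgRSV224 at MOI 0.02 alongside 4-fold compound dilutions in duplicate (0.5% DMSO). Incubated 3 days at 37 °C; EC50 taken as 50% inhibition of GFP expression by laser microscopy. CC50 measured in parallel uninfected cells by ATP content after 3 days; SI = CC50/EC50.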

Structures are written as SMILES.

These results are taken from patent US9617289B2, “RSV antiviral compounds” (JANSSEN R&D IRELAND, priority 2012, dated 2017).

As a reminder, the melting point is the temperature, or range, at which the solid turns liquid. The pEC50 is the negative decadic logarithm of the EC50, by convention in mol/L. A lower pEC50 goes with a high EC50.

For the compound `CS(=O)(=O)CCCn1c(CN2C(=O)C3(CN(CC(F)(F)F)C3)c3ccccc32)nc2cc(Cl)ccc21` [Compound 9, 1′-[[5-chloro-1-(3-methylsulfonylpropyl)benzimidazol-2-yl]methyl]-1-(2,2,2-trifluoroethyl)spiro[azetidine-3,3′-indoline]-2′-one], the melting point was found to be 200.68 °C. In addition, the EC50 in the data set on rgRSV224 virus is 0.398 nM.
The matching figures for `CS(=O)(=O)CCCn1c(CN2C(=O)C3(CCOCC3)c3ccc(F)cc32)nc2cc(Cl)ccc21` [Compound 10, 1-((5-chloro-1-(3-(methylsulfonyl)propyl)-1H-benzo[d]-imidazol-2-yl)methyl)-6-fluoro-2′,3′,5′,6′-tetrahydro-spiro[indoline-3,4′-pyran]-2-one]: 207.14 °C and 2 nM.
The matching figures for `CS(=O)(=O)CCCn1c(CN2C(=O)C3(CC(O)C3)c3ccccc32)nc2cc(Cl)ccc21` [Compound 11, (3S)-1′-({5-chloro-1-[3-(methylsulfonyl)propyl]-1H-benzimidazol-2-yl}methyl)-3-hydroxyspiro[cyclobutane-1,3′-indol]-2′(1′H)-one]: 232.91 °C and 0.398 nM.
The compound `CS(=O)(=O)CCCn1c(CN2C(=O)C3(CC(O)C3)c3ccccc32)nc2cc(Cl)ccc21` [Compound 12, (3R)-1′-({5-chloro-1-[3-(methylsulfonyl)propyl]-1H-benzimidazol-2-yl}methyl)-3-hydroxyspiro[cyclobutane-1,3′-indol]-2′(1′H)-one] showed a melting point of 209.84 °C. Moreover, in the data set on rgRSV224 virus, the pEC50 came out at 9.3.
For the compound `CC(C)C(=O)N1CC2(C1)C(=O)N(Cc1nc3cc(Cl)ccc3n1CCCS(C)(=O)=O)c1ccccc12` [Compound 28, 1′-({5-chloro-1-[3-(methylsulfonyl)propyl]-1H-benzimidazol-2-yl}methyl)-1-(2-methylpropanoyl)-spiro[azetidine-3,3′-indol]-2′(1′H)-one], the melting point was 133.12 °C. For the same compound, in the data set with rgRSV224 virus, the EC50 is less than 0.158 nM.
The matching figures for `CS(=O)(=O)CCCn1c(CN2C(=O)C3(CN(S(=O)(=O)C4CC4)C3)c3ccccc32)nc2cc(Cl)ccc21` [Compound 29, 1′-({5-chloro-1-[3-(methylsulfonyl)propyl]-1H-benzimidazol-2-yl}methyl)-1-(cyclopropylsulfonyl)-spiro[azetidine-3,3′-indol]-2′(1′H)-one]: 191.15 °C and less than 0.158 nM.
Taken in the same sequence, the figures for `CC(=O)N1CC2(C1)C(=O)N(Cc1nc3cc(Cl)ccc3n1CCCS(C)(=O)=O)c1ccccc12` [Compound 30, 1-acetyl-1′-({5-chloro-1-[3-(methylsulfonyl)propyl]-1H-benzimidazol-2-yl}methyl)spiro[azetidine-3,3′-indol]-2′(1′H)-one] were 221.24 °C and 0.251 nM.
Taken in the same sequence, the figures for `CS(=O)(=O)CCCn1c(CN2C(=O)C3(CN(C(=O)C(F)(F)F)C3)c3ccccc32)nc2cc(Cl)ccc21` [Compound 31, 1-({5-chloro-1-[3-(methylsulfonyl)propyl]-1H-benzimidazol-2-yl}methyl)-1-(trifluoroacetyl)spiro-[azetidine-3,3′-indol]-2′(1′H)-one] were 249.58 °C and 3.16 nM.
As for `CC(=O)N1CCC2(CC1)C(=O)N(Cc1nc3cc(Cl)ccc3n1CCCS(C)(=O)=O)c1ccccc12` [Compound 32, 1′-acetyl-1-({5-chloro-1-[3-(methylsulfonyl)propyl]-1H-benzimidazol-2-yl}methyl)spiro[indole-3,4′-piperidin]-2(1H)-one], the melting point was 247.98 °C. Further, in the data set on rgRSV224 virus, the EC50 was 0.631 nM.
For the compound `CS(=O)(=O)CCCn1c(CN2C(=O)C3(CCN(S(=O)(=O)c4ccc(F)cc4)CC3)c3ccccc32)nc2cc(Cl)ccc21` [Compound 34, 1-({5-chloro-1-[3-(methylsulfonyl)propyl]-1H-benzimidazol-2-yl}methyl)-1′-[(4-fluorophenyl)-sulfonyl]spiro[indole-3,4′-piperidin]-2(1H)-one], the melting point came out at 183.97 °C. Besides, the EC50 in the data set with rgRSV224 virus is 1.26 nM.
Taken in the same sequence, the figures for `CS(=O)(=O)CCCn1c(CN2C(=O)C3(CCN(S(=O)(=O)C4CC4)CC3)c3ccccc32)nc2cc(Cl)ccc21` [Compound 35, 1-({5-chloro-1-[3-(methylsulfonyl)propyl]-1H-benzimidazol-2-yl}methyl)-1′-(cyclopropylsulfonyl)-spiro[indole-3,4′-piperidin]-2(1H)-one] were 194.85 °C and 0.794 nM.
Taken in the same sequence, the figures for `COc1ccc(S(=O)(=O)N2CCC3(CC2)C(=O)N(Cc2nc4cc(Cl)ccc4n2CCCS(C)(=O)=O)c2ccccc23)cc1` [Compound 36, 1-({5-chloro-1-[3-(methylsulfonyl)propyl]-1H-benzimidazol-2-yl}methyl)-1′-[(4-methoxyphenyl)-sulfonyl]spiro[indole-3,4′-piperidin]-2(1H)-one] were 237.33 °C and 0.251 nM.
Compound `COC(=O)N1CCC2(CC1)C(=O)N(Cc1cc3cc(Cl)ccc3n1CCCS(C)(=O)=O)c1cnccc12` [Compound 55] had a melting point of 234.28 °C. In the data set on rgRSV224 virus, the EC50 is 0.0501 nM.
Taken in the same sequence, the figures for `CC(=O)N1CCC2(CC1)C(=O)N(Cc1cc3cc(Cl)ccc3n1CCCS(C)(=O)=O)c1cnccc12` [Compound 56, 1-acetyl-1′-({5-chloro-1-[3-(methylsulfonyl)propyl]-1H-indol-2-yl}methyl)spiro[piperidine-4,3′-pyrrolo[2,3-c]pyridin]-2′(1′H)-one] were 258.32 °C and 0.316 nM.
As to `CC(=O)N1CC2(C1)C(=O)N(Cc1cc3cc(Cl)ccc3n1CCCC#N)c1ccccc12` [Compound 62, 4-{2-[(1-acetyl-2′-oxospiro[azetidine-3,3′-indol]-1′(2′H)-yl)-methyl]-5-chloro-1H-indol-l-yl}butanenitrile], the melting point turned out to be 195.25 °C. In the data set with rgRSV224 virus, the EC50 was 1 nM.
Taken in the same sequence, the figures for `CC(C)(C)OC(=O)N1CC2(C1)C(=O)N(Cc1nc3cc(Cl)ccc3n1CCCC#N)c1ccccc12` [Compound 70, tert-butyl 1′-((5-chloro-1-(3-cyanopropyl)-1H-benzo[d]-imidazol-2-yl)methyl)-2′-oxospiro[azetidine-3,3′-indoline]-1-carboxylate] were 144.1 °C and less than 0.158 nM.
`O=C1N(Cc2nc3cc(Cl)ccc3n2CCCC(F)(F)F)c2cc(F)ccc2C12CCOCC2` [Compound 71, 1-((5-chloro-1-(4,4,4-trifluorobutyl)-1H-benzo[d]imidazol-2-yl)methyl)-6-fluoro-2′,3′,5′,6′-tetrahydrospiro[indoline-3,4′-pyran]-2-one] showed a melting point of 172.7 °C. In addition, the EC50 with rgRSV224 virus is 3.16 nM.
For `CC(=O)N1CC2(C1)C(=O)N(Cc1nc3cc(Cl)ccc3n1CCCS(C)(=O)=O)c1ccccc12` [Compound 72, 1-acetyl-1′-((5-chloro-1-(3-(methylsulfonyl)propyl)-1H-benzo[d]imidazol-2-yl)methyl)spiro[azetidine-3,3′-indolin]-2′-one], the melting point worked out at 226.51 °C. This compound had a pEC50 with rgRSV224 virus of 9.6.
`CC(C)(O)C(=O)N1CC2(C1)C(=O)N(Cc1cc3cc(Cl)ccc3n1CCCC#N)c1ccccc12` [Compound 73, 4-(5-chloro-2-((1-(2-hydroxy-2-methylpropanoyl)-2′-oxospiro[azetidine-3,3′-indolin]-1′-yl)methyl)-1H-indol-1-yl)butanenitrile] showed a melting point of 89.86 °C. Further, in the data set on rgRSV224 virus, the EC50 is 0.501 nM.
In turn, `O=C1N(Cc2nc3nc(Cl)ccc3n2CCCC(F)(F)F)c2cnccc2C12CCOCC2` [Compound 75, 1′-((5-chloro-1-(4,4,4-trifluorobutyl)-1H-imidazo[4,5-b]-pyridin-2-yl)methyl)-2,3,5,6-tetrahydrospiro[pyran-4,3′-pyrrolo[2,3-c]pyridin]-2′(1′H)-one] had a melting point of 188.67 °C. The pEC50 in the data set with rgRSV224 virus is recorded as 8.3.
`N#CCCCn1c(CN2C(=O)C3(CCN(C(=O)OC4COC4)CC3)c3ccncc32)cc2cc(Cl)ccc21` [Compound 80, oxetan-3-yl 1′-((5-chloro-1-(3-cyanopropyl)-1H-indol-2-yl)-methyl)-2′-oxo-1′,2′-dihydro[spiropiperidine-4,3′-pyrrolo-[2,3-c]pyridine]-1-carboxylate] came in with a melting point of 208.24 °C. In the data set on rgRSV224 virus, the EC50 was less than 0.158 nM.
The matching figures for `N#CCCCn1c(CN2C(=O)C3(CCN(S(=O)(=O)C4CC4)CC3)c3ccncc32)cc2cc(Cl)ccc21` [Compound 81, 4-(5-chloro-2-((1-(cyclopropylsulfonyl)-2′-oxospiro-[piperidine-4,3′-pyrrolo[2,3-c]pyridin]-1′(2′H)-yl)methyl)-1H-indol-1-yl)butanenitrile]: 93.04 °C and less than 0.158 nM.
The matching figures for `N#CCCCn1c(CN2C(=O)C3(CCN(C(=O)OC4COC4)CC3)c3ccncc32)nc2cc(Cl)ccc21` [Compound 82, oxetan-3-yl 1′-((5-chloro-1-(3-cyanopropyl)-1H-benzo[d]-imidazol-2-yl)methyl)-2′-oxo-1′,2′-dihydrospiro[piperidine-4,3′-pyrrolo[2,3-c]pyridine]-1-carboxylate]: 203.41 °C and less than 0.158 nM.
Taken in the same sequence, the figures for `CC(=O)N1CCC2(CC1)C(=O)N(Cc1nc3cc(Cl)ccc3n1CCCC#N)c1cnccc12` [Compound 83, 4-(2-((1-acetyl-2′-oxospiro[piperidine-4,3′-pyrrolo[2,3-c]-pyridin]-1′(2′H)-yl)methyl)-5-chloro-1H-benzo[d]imidazol-1-yl)butanenitrile] were 223.53 °C and less than 0.158 nM.
